Reference: patent US20070225518A1, “5-Aminolevulinic acid salts and their use” (priority 2006, published 2007)
“Also recorded” adds a separate entry of the source.

Legend:
[1] = system: Friend erythroleukemia cells (FLC); experiment: PpIX formation in FLC by fluorescence spectroscopy of extracted porphyrins; assay type: cell-based; conditions: 0.1 mg/ml, 4 h, excitation 410 nm, characteristic major peak at 633
Description: (§1) Cell culture. Friend erythroleukemia cells (FLC) and B16 melanoma cells were grown in a DMEM medium and RPMI 1640, respectively, (Biological Industries, Beit-Haemek, Israel), supplemented with 10% fetal calf serum and antibiotics, on tissue culture plates (Corning, Cambridge, Mass., USA) and incubated at 37° C. in a humidified atmosphere with 8% CO2. The cells were re-cultured twice a week.
(§2) Extraction of porphyrins from cells. FLC were incubated with 0.1 mg/ml ALA-HCl, AN 301, or AN 302 for 4 h. The cells were then washed and suspended in 750 μl glacial acetic acid. The cells were then sonicated on ice, at an amplitude of 1-2, three times for 45 sec, with 15 sec between successive sonications. Following the sonication, the lysate was transferred to glass test tubes containing 2.25 ml ethyl acetate, vigorously vortexed and centrifuged for 15 min at 3000 rpm. 2.6 ml of the supernatant were then transferred to glass test tubes containing 500 μl/1000 μl 1 M HCl and incubated overnight at 4° C. in the dark. Two phases formed, a lower inorganic phase and an upper organic phase containing the porphyrins. 300-700 μl from the organic phase was carefully removed with a Pasteur pipet. The porphyrins were then examined by HPLC and by spectroscopy.
Fluorometry of porphyrins. Fluorescence spectroscopy of the extrated porphyrins was examined using a SLM-Aminco spectrometer. Emission spectra were recorded following excitation at 410 nm.

[2] = system: Friend erythroleukemia cells (FLC); experiment: Stability of stored ALA salt solutions, read out as porphyrin formation in FLC by flow cytometry; assay type: cell-based; conditions: for Stability of solutions on storage (porphyrin formation in cells): 0.1 mg/ml, 7 days at 4° C. and at 37° C.; for Stability in aqueous and non-aqueous media: aqueous as well as non-aqueous media such as PEG
Description: (§3) Flow cytometry for cellular PpIX. […] After the incubation, the cells were washed with Ca^+2—Mg+^2 free PBS and scraped off with a rubber policeman. After a 10 min centrifugation at 1100 RPM, the supernatant was decanted and the pellet was resuspended in 0.5 ml Ca^+2—Mg^+2 free PBS. The cell suspension was filtered and measured using a Fluorescence Activated Cell Sorter (Becton Dickinson FACS Calibur, Mountain View, Calif., USA). 10,000 cells were measured in each sample using an excitation wavelength of 488 nm, and emission >600 nm, respectively.
. […] (a), 37° C. (b), or after no storage (c). In controls (d), no ALA salt was presented to the cells. The cells were then examined for the presence of PpIX by flow cytometry at […]. […]

[3] = system: Friend erythroleukemia cells (FLC); experiment: PpIX formation in FLC by HPLC analysis of extracted porphyrins; assay type: cell-based; conditions: 0.1 mg/ml, 4 h, retention time typical of PpIX
Description: as §1, §2
High pressure liquid chromatograph [HPLC] analysis of porphyrins. Extracted porphyrins were purified by HPLC on an Apex Presil C18 8μ column (Jones, Chromatography, Lakewood, Colo.) using a 0-50% linear gradient aetonitrile (+0.1% trifluoroacetic acid) over 40-min elution at 47% acetonitrile.

[4] = background statement, cited from earlier work
[5] = system: Friend erythroleukemia cells (FLC); experiment: Flow cytometry for cellular PpIX after uptake of ALA salt; assay type: cell-based; conditions: stock solutions in H2O, PEG, buffer pH7
Description: as §1, §3
. Stock solutions of the ALA salt were made up in (a) H2O, (b) PEG, and (c) buffer pH7. […]. The ALA salt was then presented to the cells, and biosynthesis of PpIX was determined by flow cytometry. In controls (d) no ALA salt was presented to the cells. Typical results are shown in FIG. 3 in which the horizontal axis is florescence intensity (in arbitrary units), and the vertical axis is the number of cells having a given intensity level. […]

B16 melanoma cells = experiment: ALA treatment, photosensitization and MTT assay; assay type: cell-based; conditions: 0.6 mM, 4 hr, irradiation 360-410 nm, MTT after 24 hr
Description: as §1
ALA treatment and photosensitization. […] At the end of the incubation period, the cells were irradiated using a Vilber Lourmat lamp, VL-206BL, delivering a power density of 22.5 mW at 360-410 nm. Light intensity was measured with a Nova photometer (Ophir Optronics, Jerusalem).
MTT assay. The effect of PDT on cell viability was measured after 24 hr. by a modified MTT assay which is based on the ability of live cells to cleave the tetrazolium ring to a molecule that absorbs at 590 nm in active mitochondria (Mosmann, 1983). 2×10^3 cells were grown in 96-well plates. The growth medium was replaced and 20 μl MTT (3-(4,5-dimethylthiazol-2-yl)-2,5-diphenyl tetrazolium bromide), 5 mg/ml PBS (Sigma, Chemical Co, St. Louis, Mo., USA), were added to each well. The cells were further incubated at 37° C. for 2 h. For lysis of the cells, N,N-dimethyformamide was added to the media for 5 hours and absorbance was then measured at 590 nm.

[6] = stock solution stored 7 days, 4° C.
[7] = stock solution stored 7 days, 37° C.

Row | SMILES | PpIX formation in the cells by spectroscopy [1] | Stability of solutions on storage (porphyrin formation in cells) [2] | porphyrin formation in FLC by flow cytometry [2, 6] [arbitrary units] | porphyrin formation in FLC by flow cytometry [2, 7] [arbitrary units] | porphyrin formation in FLC by flow cytometry ([2]; stock solution, storage time 0) [arbitrary units] | PpIX formation in the cells as determined by HPLC [3] | Solubility in aqueous media ([4]; aqueous media) | Solubility in organic solvents including polyethylene glycol (PEG) ([4]; organic solvents including PEG) | Solubility in stock solution solvents (H2O, PEG, and buffer pH7) | Lipid solubility PEG (PEG) | Solubility in aqueous and non-aqueous media (aqueous as well as non-aqueous media such as PEG) | formation of PpIX inside the cells by flow cytometry [5] | Stability of solutions on storage (porphyrin formation in cells) ([2]; benzenesulfonate) | Stability in aqueous and non-aqueous media [2] | Cell death / viability (MTT activity) following illumination (B16 melanoma cells)
1 | Cl.NCC(=O)CCC(=O)O [ALA-HCl, reference compound] | same porphyrin product was generated | completely degraded | 3.5 | 3.5 | 60 | same porphyrin (PpIX) was generated | soluble | insoluble | – | – | – | – | – | – | –
2 | NCC(=O)CCC(=O)O.O=S(=O)(O)c1ccccc1 [AN-301, 5-Amino4-oxopentanoic acid benzenesulfonate] | same porphyrin product was generated | – | 39 | 39 | 57 | same porphyrin (PpIX) was generated | – | – | soluble in each of these three solvents | soluble in PEG | soluble | leads to the formation of PpIX inside the cells | stable; also recorded: retained significant activity | stable | as effective as ALA-HCl in causing cell death
3 | NCC(=O)CCC(=O)O [AN-302, 5-Amino-4-oxopentanoic acid 2-naphtylsulfonate] | same porphyrin product was generated | stable; also recorded: retained significant activity | 23 | 29 | 49 | same porphyrin (PpIX) was generated | – | – | – | – | – | leads to the formation of PpIX inside the cells | – | – | as effective as ALA-HCl in causing cell death
4 | NCC(=O)CCC(=O)O.O=S(=O)(O)c1ccc2ccccc2c1 [AN-302, 5-Amino-4-oxopentanoic acid 2-naphtylsulfonate] | – | – | – | – | – | – | – | – | – | – | – | – | – | stable | –
